Assays:
Assay type in all cases: cell-based, human
[1] = tested on: CD4 and CD8 T cells (healthy donor PBMCs); experiment: IFNy and perforin cytokine production assay, with CD69 expression (flow cytometry); conditions: antagonist 12 µM; for IFNy production in CD8 T cells: n=6 healthy donors
Description: Similar experimental setup was performed as the extracellular ADO uptake assay. Cells were harvested after 2 days of CD3/CD28 bead stimulation before treatment with PMA/ionomycin (Sigma Aldrich) and golgi-inhibitors (BD biosciences). After 3 hours of subsequent incubation, intracellular staining was performed for IFNy and perforin (online supplemental table 1).
Figure 4 Rescue of lymphocyte proinflammatory cytokine production IFNy and perforin by A2BAR antagonism. (A,B) Inhibition of extracellular adenosine uptake via phosphorylated-AMP activated protein kinase (pAMPK) staining (n=7 healthy donors). Production of proinflammatory cytokines—(C,D) IFNy and (E) perforin in CD4 (n=5 healthy donors) and CD8 (n=6 healthy donors) T cells. Expression of CD69 adhesion molecule in (F). CD4 (n=7 healthy donors) and (G) CD8 (n=4 healthy donors) T cells. A2BAR antagonist 12 µM was added. Outlier is presented as diamond shape and defined by Tukey’s rule, which is not included in statistical analysis. Box plots with minimum, first quartile, median, third quartile, and maximum are presented. Normalized fold change is based on percent values compared with untreated controls. Unpaired and non-parametric statistical analysis—Mann-Whitney test was performed against untreated control with *p<0.05, **p<0.01, ***p<0.001, and ****p<0.0001.

[2] = tested on: healthy donor T cells (PBMCs) and NK cells; experiment: CFSE proliferation assay with exogenous adenosine; conditions: exogenous adenosine 0.1 mM, antagonist 12 µM; for Rescue of lymphocyte (T and NK cell) proliferation: 3 days (T) and 6 days (NK); for Rescue of NK cell proliferation: 6 days
Description: Freshly isolated PBMCs and NK cells were stained with 5 µM FITC-conjugated carboxyfluorescein succinimidyl ester (CFSE, BioLegend) in phosphate-buffered saline (PBS) (Life Technologies) at room temperature for 5 min. CSFE stained cells were washed with flow cytometer buffer three times. CSFE-labeled healthy PBMCs and NK cells were cultured in 96-well plates with X-VIVO20% and 1% PS for 3 and 6 days, respectively. Healthy PBMCs were incubated with Human T-activator CD3/CD28 beads at 1:4 ratio (Thermo Fisher Scientific) and IL-2 (Novartis) at 100 IU/mL. Healthy donor NK cells were incubated with 1000 IU/mL IL-2 only. 2×10^5 PBMCs and 5×10^4 NK cells were counted for treatment with ADO (Sigma-Aldrich) and 12 μM of A2BAR antagonist at the same day.
Figure 3 Rescue of lymphocyte proliferation by of A2BAR antagonism. Relative proliferation of: (A) CD45RA- CD4 T cells, (B) CD45RA+ CD4 T cells, (C) CD45RA- CD8 T cells, (D) CD45RA+ CD8 T cells, and (E) NK cells, after incubation with exogenous adenosine 0.1 mM and A2BAR antagonist 12 µM for 3 (A–D) and 6 (E) days. (n=10 healthy donors) CD45RA expression differentiates naïve and effector T cells from central and effector memory T cells. Box plots with minimum, first quartile, median, third quartile, and maximum are presented. Unpaired and non-parametric statistical analysis—Mann-Whitney test was performed against untreated control with *p<0.05, **p<0.01, ***p<0.001, and ****p<0.0001. (F–J) Representative CFSE histogram on the corresponding lymphocyte subset. CFSE, carboxyfluorescein succinimidyl ester.

[3] = tested on: breast cancer patient-derived spheroid cultures; experiment: Real-time imaging (IncuCyte) of breast cancer patient-derived spheroid growth; conditions: middle antagonist concentration (12 µM in figure 2), 6 days real-time imaging
Description: Brightfield and phase contrast images under 4X objective were acquired every 6 hours on IncuCyte S3 system (Essen BioScience). For breast cancer patient-derived spheroid culture, 1×10^4 cells per well were seeded with A2BAR antagonist at 12 µM treatment for 6 days real time imaging. For spheroid infiltration, after the addition of CSFE-labeled autologous expanded TILs and treatment with A2BAR antagonist at 12 µM, green fluorescence images were acquired for 3 days. All spheroid invasion analysis was performed using top hat segmentation with IncuCyte software.
(§1) Figure 2 Antitumor effect of A2BAR antagonists on breast cancer patient-derived spheroid cultures. (A) Relative cell viability to untreated antagonist control spheroid cultures (n=3, mean±SD) measured by Cell-Titer Glo assay. (B) Representative real time imaging of spheroid cultures over 6 days under 4X objective, with untreated (first column) or added 12 µM concentration respective of A2BAR antagonists indicated. Red mask demarcates area with cells surrounding the spheroid. Green line indicates estimated diameter of spheroid body. (C) Relative area of the representative spheroid growth (as shown in B) normalized to day 1. Statistical analysis—2-way (A) and 1-way (C) ANOVA with Dunnett’s multiple comparisons to untreated antagonist control was performed with *p<0.05, **p<0.01, ***p<0.001, and ****p<0.0001.

[4] = tested on: breast cancer patient-derived spheroid cultures; experiment: Cell viability assay (Cell-Titer Glo) on breast cancer patient-derived spheroid cultures; conditions: 4 days exposure
Description: From breast cancer single cell suspension, 3×10^3 cells were seeded and cultured in an ultra-low attachment 384-well plate (Corning) with DMEM-F12 media (Thermo Fisher Scientific) containing 20% FBS and 1% PS. Treatment with A2BAR antagonist at various concentrations are stated in the Results section. After 4 days, Cell-Titer Glo reagent (Promega) was used to measure cell viability in accordance to the manufacturer’s instruction. EnSpire Multilabel Reader (PerkinElmer) was used to read the luminescence.
as §1

With `CC1=C(C(=O)OC(C)C)C(c2ccco2)n2c(nc3ccccc32)N1` (centres unmarked) [ISAM-140, isopropyl 4-(furan-2-yl)−2-methyl-1,4-dihydrobenzo[4 5] imidazo[1,2 a]pyrimidine-3-carboxylate] the “IFNy production in CD4 T cells” value ([1]; exogenous adenosine, n=5 healthy donors) was “upregulated IFNy production”, the “IFNy production in CD8 T cells” value ([1]; exogenous adenosine) was “upregulated IFNy production” and the “Rescue of lymphocyte (T and NK cell) proliferation” value [2] was “improved immune cell proliferation”. The “Rescue of proliferation of CD45RA+ (naïve and effector) CD8 T cells” value ([2]; 3 days, n=10 healthy donors) was “rescued the proliferation”, the “Rescue of proliferation of CD45RA+ CD4 T cells” value ([2]; 3 days, n=10 healthy donors) was “rescued the proliferation” and the “Rescue of proliferation of CD45RA- CD4 T cells (central and effector memory)” value ([2]; 3 days, n=10 healthy donors) was “rescued the proliferation”. The “Rescue of NK cell proliferation” value ([2]; n=10 healthy donors) was “rescued the proliferation”, the “Spheroid growth over time (relative area) vs untreated control” value [3] was “significantly affected the spheroid growth over time” and the “Relative cell viability of breast cancer spheroids vs untreated control” value (from here on “Relative cell viability”) ([4]; n=3) was “significantly reduced”.

With `CC1=C(C(=O)OC(C)C)C(c2ccco2)n2c(nc3ccccc32)N1Cc1ccccc1F` (centres unmarked) [ISAM-R56A] the “IFNy production by T cells on adenosine suppression (subset not given)” value ([1]; exogenous adenosine) was “significantly improved”, the “Perforin production by CD8 T cells on adenosine suppression” value ([1]; exogenous adenosine) was “significantly improved” and the “IFNy production in CD8 T cells” value ([1]; exogenous adenosine) was “significantly rescued”. The “Perforin production by CD8 T cells on adenosine suppression” value ([1]; exogenous adenosine, listed as ISAM–R56A) was “significantly rescued”, the “Rescue of proliferation of T cell subsets” value ([2]; 3 days, n=10 healthy donors) was “did not restore the proliferation” and the “Rescue of NK cell proliferation” value ([2]; n=10 healthy donors) was “significantly rescued”. For the same compound, the “Spheroid growth over time (relative area) vs untreated control” value [3] was “significantly affected the spheroid growth over time” and the “Relative cell viability” value ([4]; n=3) was “significantly reduced”.

For `CC1=C(C(=O)OC(C)C)C(c2ccoc2)n2c(nc3cc(Cl)ccc32)N1` (centres unmarked) [ISAM-M89A], the “CD69 expression in CD8 T cells” value ([1]; n=4 healthy donors) was “positive effect”, the “CD69 expression in CD4 T cells” value ([1]; n=7 healthy donors) was “positive effect” and the “Rescue of lymphocyte (T and NK cell) proliferation” value [2] was “did not restore the proliferation”. The “Spheroid growth over time (relative area) vs untreated control” value [3] was “significantly affected the spheroid growth over time”, the “Relative cell viability” value ([4]; n=3) was “more pronounced effect” and the “Relative cell viability” value ([4]; n=3, listed as ISAM–M89A) was “significantly reduced”.
